Values quoted from earlier work, collected in patent publication US20200038318A1, “ORAL MEDICATION FORMULATIONS” (GRUNBIOTICS PTY LTD, priority 2016, published 2020).

Tested on: patients with major depressive disorder who have a partial response or no response to SSRIs
Conditions: 15 mg/day

CN1c2c([nH]c(N)nc2=O)NC[C@@H]1CNc1ccc(C(=O)N[C@@H](CCC(=O)O)C(=O)O)cc1 [L-methylfolate]
Efficacy, safety and tolerability as adjunctive treatment: effective safe and relatively well tolerated
